Assay results reported in ChEMBL document CHEMBL4014279, “Synthesis of novel pyrazolo[3,4-b]quinolinyl acetamide analogs, their evaluation for antimicrobial and anticancer activities, validation by molecular modeling and CoMFA analysis” (Eur J Med Chem, 2017).
Values after ≈ are worked out from the molar mass of the structure shown.

Key:
[1] = test system: Staphylococcus aureus; experiment: Antibacterial activity against Staphylococcus aureus MTCC 96 after 24 hrs by well diffusion method; assay type: functional; conditions: MTCC 96, 24 h
[2] = test system: COLO 205; experiment: Cytotoxicity against human COLO205 cells after 24 hrs by MTT assay; assay type: functional, cell-based; conditions: COLO 205, 24 h
[3] = test system: Escherichia coli; experiment: Antibacterial activity against Escherichia coli MTCC 739 after 24 hrs by well diffusion method; assay type: functional; conditions: MTCC 739, 24 h
[4] = test system: HeLa; experiment: Cytotoxicity against human HeLa cells after 24 hrs by MTT assay; assay type: functional, cell-based
[5] = test system: Raoultella planticola; experiment: Antibacterial activity against Klebsiella planticola MTCC 530 after 24 hrs by well diffusion method; assay type: functional; conditions: MTCC 530, 24 h
[6] = test system: A549; experiment: Cytotoxicity against human A549 cells after 24 hrs by MTT assay; assay type: functional, cell-based; conditions: A549, 24 h
[7] = test system: Bacillus subtilis; experiment: Antibacterial activity against Bacillus subtilis MTCC 121 after 24 hrs by well diffusion method; assay type: functional; conditions: MTCC 121, 24 h
[8] = test system: Micrococcus luteus; experiment: Antibacterial activity against Micrococcus luteus MTCC 2470 after 24 hrs by well diffusion method; assay type: functional; conditions: MTCC 2470, 24 h
[9] = test system: HepG2; experiment: Cytotoxicity against human HepG2 cells after 24 hrs by MTT assay; assay type: functional, cell-based; conditions: HepG2, 24 h
[10] = test system: Pseudomonas aeruginosa; experiment: Antibacterial activity against Pseudomonas aeruginosa MTCC 2453 after 24 hrs by well diffusion method; assay type: functional; conditions: MTCC 2453, 24 h
[11] = test system: Staphylococcus aureus; experiment: Antibacterial activity against Staphylococcus aureus MLS16 MTCC 2940 after 24 hrs by well diffusion method; assay type: functional; conditions: MLS16 MTCC 2940, 24 h

| Compound | MIC [1] | IC50 [2] | MIC [3] | IC50 [4] | MIC [5] | IC50 [6] | MIC [7] | MIC [8] | IC50 [9] | MIC [10] | MIC [11] |
| --- | --- | --- | --- | --- | --- | --- | --- | --- | --- | --- | --- |
| CCCNC(=O)Cn1nc(C(F)(F)F)c2c(-c3ccccc3)c3ccccc3nc21 | 7.8 to 125 µg/mL (≈ 18.9 to 303 µM) | 22.1 µM | 7.8 to 125 µg/mL (≈ 18.9 to 303 µM) | 23.7 µM | 7.8 to 125 µg/mL (≈ 18.9 to 303 µM) | 25.6 µM | 7.8 to 125 µg/mL (≈ 18.9 to 303 µM) | 7.8 to 125 µg/mL (≈ 18.9 to 303 µM) | 23.4 µM | 7.8 to 125 µg/mL (≈ 18.9 to 303 µM) | 7.8 to 125 µg/mL (≈ 18.9 to 303 µM) |
| CNC(=O)Cn1nc(C(F)(F)F)c2c(C)c3ccccc3nc21 | 7.8 to 125 µg/mL (≈ 24.2 to 388 µM) | 12.8 µM | 7.8 to 125 µg/mL (≈ 24.2 to 388 µM) | 17.2 µM | 7.8 to 125 µg/mL (≈ 24.2 to 388 µM) | 11.3 µM | 7.8 to 125 µg/mL (≈ 24.2 to 388 µM) | 7.8 to 125 µg/mL (≈ 24.2 to 388 µM) | 18.9 µM | 7.8 to 125 µg/mL (≈ 24.2 to 388 µM) | 7.8 to 125 µg/mL (≈ 24.2 to 388 µM) |
| Cc1c2ccccc2nc2c1c(C(F)(F)F)nn2CC(=O)NC1CC1 | 7.8 to 125 µg/mL (≈ 22.4 to 359 µM) | 22.7 µM | 7.8 to 125 µg/mL (≈ 22.4 to 359 µM) | 21 µM | 7.8 to 125 µg/mL (≈ 22.4 to 359 µM) | 19.2 µM | 7.8 to 125 µg/mL (≈ 22.4 to 359 µM) | 7.8 to 125 µg/mL (≈ 22.4 to 359 µM) | 18.6 µM | 7.8 to 125 µg/mL (≈ 22.4 to 359 µM) | 7.8 to 125 µg/mL (≈ 22.4 to 359 µM) |
| Cc1nn(CC(=O)NC2CCCCC2)c2nc3ccccc3c(C)c12 | 7.8 to 125 µg/mL (≈ 23.2 to 372 µM) | 20.1 µM | 7.8 to 125 µg/mL (≈ 23.2 to 372 µM) | 14.2 µM | 7.8 to 125 µg/mL (≈ 23.2 to 372 µM) | 12.6 µM | 7.8 to 125 µg/mL (≈ 23.2 to 372 µM) | 7.8 to 125 µg/mL (≈ 23.2 to 372 µM) | 10.8 µM | 7.8 to 125 µg/mL (≈ 23.2 to 372 µM) | 7.8 to 125 µg/mL (≈ 23.2 to 372 µM) |
| O=C(Cn1nc(C(F)(F)F)c2c(-c3ccccc3)c3ccccc3nc21)NCc1ccco1 | 7.8 to 125 µg/mL (≈ 17.3 to 278 µM) | 28.1 µM | 7.8 to 125 µg/mL (≈ 17.3 to 278 µM) | 27.2 µM | 7.8 to 125 µg/mL (≈ 17.3 to 278 µM) | 22.4 µM | 7.8 to 125 µg/mL (≈ 17.3 to 278 µM) | 7.8 to 125 µg/mL (≈ 17.3 to 278 µM) | 26.8 µM | 7.8 to 125 µg/mL (≈ 17.3 to 278 µM) | 7.8 to 125 µg/mL (≈ 17.3 to 278 µM) |
| COc1ccc(NC(=O)Cn2nc(C)c3c(C)c4ccccc4nc32)cc1 | 7.8 to 125 µg/mL (≈ 21.6 to 347 µM) | 18.9 µM | 7.8 to 125 µg/mL (≈ 21.6 to 347 µM) | 20.4 µM | 7.8 to 125 µg/mL (≈ 21.6 to 347 µM) | 25.6 µM | 7.8 to 125 µg/mL (≈ 21.6 to 347 µM) | 7.8 to 125 µg/mL (≈ 21.6 to 347 µM) | 22.2 µM | 7.8 to 125 µg/mL (≈ 21.6 to 347 µM) | 7.8 to 125 µg/mL (≈ 21.6 to 347 µM) |
| CNC(=O)Cn1nc(C(F)(F)F)c2c(-c3ccccc3)c3ccccc3nc21 | 7.8 to 125 µg/mL (≈ 20.3 to 325 µM) | 19.8 µM | 7.8 to 125 µg/mL (≈ 20.3 to 325 µM) | 23.5 µM | 7.8 to 125 µg/mL (≈ 20.3 to 325 µM) | 21.4 µM | 7.8 to 125 µg/mL (≈ 20.3 to 325 µM) | 7.8 to 125 µg/mL (≈ 20.3 to 325 µM) | 22.5 µM | 7.8 to 125 µg/mL (≈ 20.3 to 325 µM) | 7.8 to 125 µg/mL (≈ 20.3 to 325 µM) |
| Cc1nn(CC(=O)N2CCCCC2)c2nc3ccccc3c(C)c12 | 7.8 to 125 µg/mL (≈ 24.2 to 388 µM) | 11.9 µM | 7.8 to 125 µg/mL (≈ 24.2 to 388 µM) | 17 µM | 7.8 to 125 µg/mL (≈ 24.2 to 388 µM) | 20.5 µM | 7.8 to 125 µg/mL (≈ 24.2 to 388 µM) | 7.8 to 125 µg/mL (≈ 24.2 to 388 µM) | 15.5 µM | 7.8 to 125 µg/mL (≈ 24.2 to 388 µM) | 7.8 to 125 µg/mL (≈ 24.2 to 388 µM) |
| CCNC(=O)Cn1nc(C(F)(F)F)c2c(-c3ccccc3)c3ccccc3nc21 | 7.8 to 125 µg/mL (≈ 19.6 to 314 µM) | 18.9 µM | 7.8 to 125 µg/mL (≈ 19.6 to 314 µM) | 26.5 µM | 7.8 to 125 µg/mL (≈ 19.6 to 314 µM) | 29.5 µM | 7.8 to 125 µg/mL (≈ 19.6 to 314 µM) | 7.8 to 125 µg/mL (≈ 19.6 to 314 µM) | 22.2 µM | 7.8 to 125 µg/mL (≈ 19.6 to 314 µM) | 7.8 to 125 µg/mL (≈ 19.6 to 314 µM) |
| Cc1c2ccccc2nc2c1c(C(F)(F)F)nn2CC(=O)NCc1ccco1 | 7.8 to 125 µg/mL (≈ 20.1 to 322 µM) | 29.8 µM | 7.8 to 125 µg/mL (≈ 20.1 to 322 µM) | 32.8 µM | 7.8 to 125 µg/mL (≈ 20.1 to 322 µM) | 33.9 µM | 7.8 to 125 µg/mL (≈ 20.1 to 322 µM) | 7.8 to 125 µg/mL (≈ 20.1 to 322 µM) | 48.2 µM | 7.8 to 125 µg/mL (≈ 20.1 to 322 µM) | 7.8 to 125 µg/mL (≈ 20.1 to 322 µM) |
| CCNC(=O)Cn1nc(C(F)(F)F)c2c(C)c3ccccc3nc21 | 7.8 to 125 µg/mL (≈ 23.2 to 372 µM) | 16.4 µM | 7.8 to 125 µg/mL (≈ 23.2 to 372 µM) | 19.2 µM | 7.8 to 125 µg/mL (≈ 23.2 to 372 µM) | 22.8 µM | 7.8 to 125 µg/mL (≈ 23.2 to 372 µM) | 7.8 to 125 µg/mL (≈ 23.2 to 372 µM) | 20.8 µM | 7.8 to 125 µg/mL (≈ 23.2 to 372 µM) | 7.8 to 125 µg/mL (≈ 23.2 to 372 µM) |
